From ChEMBL document CHEMBL1201862, “PubChem BioAssay data set” (2004)
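Method: 48-hour compound exposure of cells in 96-well plates, five concentrations, linear interpolation of endpoints. At the GI50, growth is halved.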 Active and inactive are the calls of the source. Cut-off read from the data, not from the text of the source: active = GI50 up to about 1.1 µM and inactive = higher.

Tests used:
Experiment in all cases: NCI anticancer screen, dose series, 48 h
COLO 205 = system: COLO 205
PC-3 = system: PC-3
UO-31 = system: UO-31
DLD-1 = system: DLD-1
U-251 = system: U-251
HOP-92 = system: HOP-92
RXF 393 = system: RXF 393
SR = system: SR
MCF7 = system: MCF7
NCI-H23 = system: NCI-H23
NCI-H522 = system: NCI-H522
IGROV-1 = system: IGROV-1
MDA-MB-435 = system: MDA-MB-435
T47D = system: T47D
OVCAR-3 = system: OVCAR-3
SK-MEL-5 = system: SK-MEL-5
MOLT-4 = system: MOLT-4
HT-29 = system: HT-29
HCT-15 = system: HCT-15
CCRF-CEM = system: CCRF-CEM

Structure (SMILES): Nc1nc(N)c2cc(CNc3ccc(C(=O)NC(CC(=O)O)C(=O)O)c(Cl)c3)ccc2n1 (stereo not given)
- GI50 (COLO 205): 0.861 µM (active)
- GI50 (PC-3): 10.1 µM (inactive)
- GI50 (UO-31): 0.918 µM (active)
- GI50 (DLD-1): 0.038 µM (active)
- GI50 (U-251): 0.0556 µM (active)
- GI50 (HOP-92): > 87.5 µM (inactive)
- GI50 (RXF 393): 61 µM (inactive)
- GI50 (SR): 0.05 µM (active)
- GI50 (MCF7): 0.0507 µM (active)
- GI50 (NCI-H23): 0.117 µM (active)
- GI50 (NCI-H522): 0.502 µM (active)
- GI50 (IGROV-1): 0.112 µM (active)
- GI50 (MDA-MB-435): < 0.01 µM (active)
- GI50 (T47D): 0.524 µM (active)
- GI50 (OVCAR-3): 0.8 µM (active)
- GI50 (SK-MEL-5): 0.162 µM (active)
- GI50 (MOLT-4): 0.0175 µM (active)
- GI50 (HT-29): < 0.0143 µM (active)
- GI50 (HCT-15): 0.0203 µM
- GI50 (CCRF-CEM): 0.0342 µM (active)
